# According to patent publication US20260232578A1, “COMPOSITIONS AND METHODS FOR TRANSMUCOSAL ABSORPTION” (Tonix Pharma Limited, priority 2012, published 2026):
# “And” between values parts separate entries of the source, which are not always exact repeats. Equal values may be shown once.
# Experiments:
# [1] = target: T1, adrenergic α1B receptor (Alpha1B) (Homo sapiens, UniProt P35368); experiment: Equilibrium receptor binding, recombinant human receptor
# T1 construct: expressed in transfected cells
# [2] = target: 5-HT6 (Homo sapiens, UniProt P50406); experiment: Functional antagonism (Table 69)
# [3] = target: T2, 5-HT2A (Homo sapiens, UniProt P28223); experiment: G-protein-independent signal transduction, β-arrestin signaling; assay type: cell-based; conditions: for IC50: β-arrestin signaling, read-out: IC50, functional antagonist
# T2 construct: expressed in transfected cells
# [4] = target: T3, muscarinic M1 receptor (Homo sapiens, UniProt P11229); experiment: G-protein-dependent signal transduction, intracellular Ca2+ mobilization; assay type: cell-based; parameters: expressed in transfected cells; conditions: for IC50: M1, Ca2+ mobilization, read-out: IC50, functional antagonist
# T3 sequence (P11229 1-460): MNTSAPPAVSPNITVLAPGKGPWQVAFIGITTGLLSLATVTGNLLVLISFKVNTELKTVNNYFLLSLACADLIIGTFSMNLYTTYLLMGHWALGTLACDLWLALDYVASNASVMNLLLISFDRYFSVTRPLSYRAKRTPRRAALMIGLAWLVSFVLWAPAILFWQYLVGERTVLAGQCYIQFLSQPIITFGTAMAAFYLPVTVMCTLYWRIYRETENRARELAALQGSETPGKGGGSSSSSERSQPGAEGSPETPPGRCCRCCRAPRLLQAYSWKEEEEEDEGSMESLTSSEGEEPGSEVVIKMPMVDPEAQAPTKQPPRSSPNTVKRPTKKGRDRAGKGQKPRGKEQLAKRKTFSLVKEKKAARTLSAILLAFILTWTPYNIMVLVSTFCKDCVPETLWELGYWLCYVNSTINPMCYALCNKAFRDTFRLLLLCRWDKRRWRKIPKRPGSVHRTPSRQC
# [5] = target: T2, 5-HT2A; experiment: biochemical; assay type: binding; conditions: for Ki: 5-HT2A
# [6] = target: T4, dopamine D1 receptor (Homo sapiens, UniProt P21728); experiment: Equilibrium receptor binding, recombinant human receptor
# T4 construct: expressed in transfected cells
# [7] = target: T2, 5-HT2A; experiment: G-protein-dependent signal transduction, turnover of inositol triphosphate (IP); assay type: cell-based; conditions: read-out: IC50 (nM) (Antagonist)
# [8] = target: T5, histamine H1 receptor (Homo sapiens, UniProt P35367); experiment: Equilibrium receptor binding, recombinant human receptor; conditions: for Ki: H1
# T5 construct: expressed in transfected cells
# [9] = target: T6, adrenergic α1A receptor (Alpha1A) (Homo sapiens, UniProt P35348); experiment: as above; conditions: for Ki: Alpha1A
# T6 construct: expressed in transfected cells
# T6 sequence (P35348 1-466): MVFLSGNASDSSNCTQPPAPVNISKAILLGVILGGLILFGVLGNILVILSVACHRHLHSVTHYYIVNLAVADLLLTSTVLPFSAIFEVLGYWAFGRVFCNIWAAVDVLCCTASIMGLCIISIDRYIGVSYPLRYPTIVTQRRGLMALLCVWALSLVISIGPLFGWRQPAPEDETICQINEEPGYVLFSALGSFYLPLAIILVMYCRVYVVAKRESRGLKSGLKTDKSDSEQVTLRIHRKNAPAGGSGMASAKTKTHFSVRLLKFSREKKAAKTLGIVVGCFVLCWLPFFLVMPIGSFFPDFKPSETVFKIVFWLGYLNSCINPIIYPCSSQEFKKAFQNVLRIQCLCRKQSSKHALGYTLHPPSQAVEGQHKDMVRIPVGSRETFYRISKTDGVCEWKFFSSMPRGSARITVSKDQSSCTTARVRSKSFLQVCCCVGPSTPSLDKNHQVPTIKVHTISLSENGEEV
# [10] = target: T7, 5-HT1A receptor (Homo sapiens, UniProt P08908); experiment: as above
# T7 construct: expressed in transfected cells
# T7 sequence (P08908 1-422): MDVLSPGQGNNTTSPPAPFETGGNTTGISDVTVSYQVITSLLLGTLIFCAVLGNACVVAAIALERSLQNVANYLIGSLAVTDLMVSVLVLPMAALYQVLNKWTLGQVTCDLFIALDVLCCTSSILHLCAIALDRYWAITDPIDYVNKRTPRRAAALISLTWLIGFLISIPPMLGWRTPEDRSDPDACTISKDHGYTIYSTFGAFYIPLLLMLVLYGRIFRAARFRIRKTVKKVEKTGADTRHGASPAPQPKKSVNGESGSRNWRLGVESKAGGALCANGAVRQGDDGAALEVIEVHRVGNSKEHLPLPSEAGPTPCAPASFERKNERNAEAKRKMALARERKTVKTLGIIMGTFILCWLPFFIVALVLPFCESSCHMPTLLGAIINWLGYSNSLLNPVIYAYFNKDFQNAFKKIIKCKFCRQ
# [11] = target: D5 (Homo sapiens, UniProt P21918); experiment: as above
# [12] = target: T8, adrenergic alpha-2A receptor (Alpha2A) (Homo sapiens, UniProt P08913); experiment: as above
# T8 construct: expressed in transfected cells
# T8 sequence (P08913 1-465): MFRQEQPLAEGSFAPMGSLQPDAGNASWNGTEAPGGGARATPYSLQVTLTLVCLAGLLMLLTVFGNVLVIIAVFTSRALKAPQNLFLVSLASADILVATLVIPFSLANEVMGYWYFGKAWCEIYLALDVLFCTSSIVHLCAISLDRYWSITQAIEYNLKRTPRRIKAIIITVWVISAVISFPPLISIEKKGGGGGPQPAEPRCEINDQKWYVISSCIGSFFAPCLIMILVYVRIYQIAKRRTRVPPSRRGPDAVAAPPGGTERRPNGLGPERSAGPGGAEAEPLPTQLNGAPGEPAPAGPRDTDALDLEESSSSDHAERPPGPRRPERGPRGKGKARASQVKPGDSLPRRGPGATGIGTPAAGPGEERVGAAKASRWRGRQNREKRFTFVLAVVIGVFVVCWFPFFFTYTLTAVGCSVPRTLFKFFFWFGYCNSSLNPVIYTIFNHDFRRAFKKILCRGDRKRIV
# T4 sequence (P21728 whole entry): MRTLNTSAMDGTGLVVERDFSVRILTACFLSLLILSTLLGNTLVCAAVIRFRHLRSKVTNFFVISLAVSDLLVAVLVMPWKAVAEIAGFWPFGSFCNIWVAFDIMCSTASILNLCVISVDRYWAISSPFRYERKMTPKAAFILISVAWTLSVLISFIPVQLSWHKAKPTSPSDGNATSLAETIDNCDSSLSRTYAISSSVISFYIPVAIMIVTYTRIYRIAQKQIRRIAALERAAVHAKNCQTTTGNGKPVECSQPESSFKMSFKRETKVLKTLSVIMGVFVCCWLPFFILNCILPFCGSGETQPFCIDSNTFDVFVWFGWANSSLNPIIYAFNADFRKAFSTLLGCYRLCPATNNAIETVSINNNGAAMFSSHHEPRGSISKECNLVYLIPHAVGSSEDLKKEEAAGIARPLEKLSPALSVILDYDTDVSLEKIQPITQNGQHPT
# T2 sequence (P28223 whole entry): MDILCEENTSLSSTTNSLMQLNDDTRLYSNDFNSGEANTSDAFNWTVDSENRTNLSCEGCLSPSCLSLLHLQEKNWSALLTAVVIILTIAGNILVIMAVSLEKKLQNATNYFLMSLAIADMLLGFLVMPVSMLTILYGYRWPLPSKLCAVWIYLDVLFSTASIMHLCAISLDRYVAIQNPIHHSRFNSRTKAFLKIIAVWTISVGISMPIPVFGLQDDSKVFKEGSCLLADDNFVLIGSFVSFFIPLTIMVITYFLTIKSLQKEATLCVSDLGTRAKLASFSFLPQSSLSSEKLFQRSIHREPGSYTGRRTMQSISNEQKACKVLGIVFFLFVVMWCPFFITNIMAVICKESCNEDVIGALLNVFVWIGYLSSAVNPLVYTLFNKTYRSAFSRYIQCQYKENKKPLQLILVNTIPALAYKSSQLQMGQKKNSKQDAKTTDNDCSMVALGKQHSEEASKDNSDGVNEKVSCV
# T5 sequence (P35367 whole entry): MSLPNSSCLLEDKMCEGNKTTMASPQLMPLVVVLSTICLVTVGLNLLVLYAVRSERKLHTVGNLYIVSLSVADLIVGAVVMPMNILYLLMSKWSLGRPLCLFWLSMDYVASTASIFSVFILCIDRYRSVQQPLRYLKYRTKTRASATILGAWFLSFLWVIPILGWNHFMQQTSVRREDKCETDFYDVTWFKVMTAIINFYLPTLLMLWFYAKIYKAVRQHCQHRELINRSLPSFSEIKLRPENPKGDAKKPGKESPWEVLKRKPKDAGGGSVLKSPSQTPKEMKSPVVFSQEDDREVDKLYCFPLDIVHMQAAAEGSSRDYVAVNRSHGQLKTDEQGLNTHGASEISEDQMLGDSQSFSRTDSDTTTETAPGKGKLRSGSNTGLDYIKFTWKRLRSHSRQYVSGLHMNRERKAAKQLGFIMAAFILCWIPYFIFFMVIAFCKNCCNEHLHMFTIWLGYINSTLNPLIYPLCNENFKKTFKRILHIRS
# D5, sequence (P21918 whole entry): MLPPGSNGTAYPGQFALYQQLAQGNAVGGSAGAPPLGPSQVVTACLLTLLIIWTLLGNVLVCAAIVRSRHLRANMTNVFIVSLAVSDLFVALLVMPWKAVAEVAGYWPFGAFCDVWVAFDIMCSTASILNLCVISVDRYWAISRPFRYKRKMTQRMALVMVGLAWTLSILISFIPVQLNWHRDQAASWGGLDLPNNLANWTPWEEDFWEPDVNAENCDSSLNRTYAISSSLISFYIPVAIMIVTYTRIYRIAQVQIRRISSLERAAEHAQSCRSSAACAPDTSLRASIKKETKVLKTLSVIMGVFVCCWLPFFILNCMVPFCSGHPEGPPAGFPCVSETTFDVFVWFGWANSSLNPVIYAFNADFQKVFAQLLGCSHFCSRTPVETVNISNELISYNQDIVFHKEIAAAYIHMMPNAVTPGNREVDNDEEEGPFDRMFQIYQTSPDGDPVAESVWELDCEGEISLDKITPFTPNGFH
# 5-HT6, sequence (P50406 whole entry): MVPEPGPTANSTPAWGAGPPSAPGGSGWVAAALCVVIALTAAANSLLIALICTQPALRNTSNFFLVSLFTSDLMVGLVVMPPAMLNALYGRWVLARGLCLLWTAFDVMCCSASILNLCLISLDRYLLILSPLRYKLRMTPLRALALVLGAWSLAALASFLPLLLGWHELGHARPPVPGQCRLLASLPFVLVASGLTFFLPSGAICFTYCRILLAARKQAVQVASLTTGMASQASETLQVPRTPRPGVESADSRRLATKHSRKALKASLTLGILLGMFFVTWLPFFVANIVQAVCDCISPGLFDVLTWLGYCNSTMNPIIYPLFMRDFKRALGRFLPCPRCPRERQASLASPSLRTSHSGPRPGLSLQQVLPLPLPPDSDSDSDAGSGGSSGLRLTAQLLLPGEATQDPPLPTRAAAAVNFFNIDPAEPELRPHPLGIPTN
# T1 sequence (P35368 whole entry): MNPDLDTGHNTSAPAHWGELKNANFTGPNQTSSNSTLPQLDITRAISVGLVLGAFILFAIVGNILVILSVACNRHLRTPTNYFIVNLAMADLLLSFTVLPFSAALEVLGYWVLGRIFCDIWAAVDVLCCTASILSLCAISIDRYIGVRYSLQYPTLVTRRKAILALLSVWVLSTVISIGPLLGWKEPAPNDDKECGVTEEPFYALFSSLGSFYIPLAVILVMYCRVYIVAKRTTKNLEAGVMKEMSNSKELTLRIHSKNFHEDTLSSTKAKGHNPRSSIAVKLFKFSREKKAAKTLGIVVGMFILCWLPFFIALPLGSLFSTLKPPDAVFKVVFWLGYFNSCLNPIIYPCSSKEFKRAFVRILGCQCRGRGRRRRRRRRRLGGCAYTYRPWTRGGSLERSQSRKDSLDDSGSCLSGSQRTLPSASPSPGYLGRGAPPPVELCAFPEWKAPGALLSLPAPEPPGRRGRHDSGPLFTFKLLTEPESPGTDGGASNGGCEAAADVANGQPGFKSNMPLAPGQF
Structure (SMILES),Ki [1],IC50 [2],IC50 [3],IC50 [4],Ki [5],Ki [6],IC50 [7],Ki [8],Ki [9],Ki [10],Ki [11],Ki [12],Four parameter Hill slope (or fit slope) ratio; β-arrestin signaling [3],Four parameter Hill slope (or fit slope) ratio; Ca2+ signaling ([4]; M1),Hill plot ratio (Hill slope) [5],Hill plot ratio (Hill slope) ([6]; equilibrium binding),Hill plot ratio (Hill slope) [8],"Hill plot ratio (Hill slope) ([9]; equilibrium binding, α-1A)",Hill plot ratio (Hill slope) ([10]; equilibrium binding)
"CN(C)CCC=C1c2ccccc2C=Cc2ccccc21 [cyclobenzaprine, 3-(5H-dibenzo[a,d]cyclohepten-5-ylidene)-N,N-dimethyl-1-propanamine]",9.1 nM,2000 nM,99 nM,0.71 nM,5.2 nM and 5.1 nM,12 nM,210 nM,1.3 nM,5.6 nM,1100 nM,60 nM,360 nM,,,,,,,
"CNCCC=C1c2ccccc2C=Cc2ccccc21 [norcyclobenzaprine, 3-(5H-dibenzo[a,d]cyclohepten-5-ylidene)-N-methyl-1-propanamine]",11 nM,2800 nM,181 nM,8.7 nM,13 nM and 13.2 nM,57 nM,450 nM,5.6 nM and 5.9 nM,34 nM,76 nM,280 nM,1800 nM,1.11,0.62,0.50,1.15,1.04,1.16,4.07
